Experimental data published in patent US8680159B2, “Bradykinin 1 receptor modulating compounds” (Gruenenthal GmbH, priority 2010, dated 2014).

Each molecule was assayed against T1, B1R receptor of the rat (CHO K1 cells stably transfected with the B1R gene of the rat) (Rattus norvegicus, UniProt P97583) (assay: Functional study on the bradykinin receptor 1 (B1R), Ca2+ fluorescence (Fluo-4) FLIPR/Novostar assay, rB1R cells). Conditions: CHO-K1, 10 μM, read-out: % Inhibition (r-B1R) at 10 μM.
T1 construct: expressed in transfected cells; host or cells: CHO K1 cells (Chinese hamster ovary), stably transfected
T1 sequence (P97583 1-337): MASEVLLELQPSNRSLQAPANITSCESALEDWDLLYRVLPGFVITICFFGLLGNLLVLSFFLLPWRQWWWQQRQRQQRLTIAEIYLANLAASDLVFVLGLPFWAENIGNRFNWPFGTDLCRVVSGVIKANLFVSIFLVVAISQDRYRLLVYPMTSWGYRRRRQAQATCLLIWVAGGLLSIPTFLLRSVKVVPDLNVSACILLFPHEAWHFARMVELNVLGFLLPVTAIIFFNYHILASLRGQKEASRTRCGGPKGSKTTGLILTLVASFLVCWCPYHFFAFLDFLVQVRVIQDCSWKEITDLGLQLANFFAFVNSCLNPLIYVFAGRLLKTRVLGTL
Format: cell-based
Summary of the method: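 Ca2+ influx (Fluo-4, peak fluorescence, λex 488/λem 540 nm) was measured in CHO K1 lines expressing rat or human B1R. After a 10 μM test-compound pre-addition scoring % activation, cells received EC80 agonist: Des-Arg9-bradykinin for rat, Lys-Des-Arg9-bradykinin for human. Antagonism was expressed as % of maximum inhibition, with IC50 from varied concentrations.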

Row | Structure (SMILES) | inhibition at 10 µM [%]
1 | COCC(=O)NC1CCc2ccc(C(=O)N(C)C3CCN(c4cc(C)nc(C)c4)CC3)cc21 (stereo not drawn) [CC_H-300, N-[1-(2,6-Dimethyl-pyridin-4-yl)-piperidin-4-yl]-3-[(2-methoxy-acetyl)amino]-N-methyl-2,3-dihydro-1H-indene-5-carboxylic acid amide] | 103
2 | Cc1cc(N2CCC(N(C)C(=O)c3ccc4c(c3)C(NS(=O)(=O)Cc3ccccc3C(F)(F)F)CC4)CC2)cc(C)n1 (stereo not drawn) [CC_H-302, N-[1-(2,6-Dimethyl-pyridin-4-yl)-piperidin-4-yl]-N-methyl-3-[[[2-(trifluoromethyl)-phenyl]-methylsulfonyl]amino]-2,3-dihydro-1H-indene-5-carboxylic acid amide] | 112
3 | Cc1cc(N2CCC(N(C)C(=O)c3ccc4c(c3)C(NC(=O)c3cccc(C(F)(F)F)c3Cl)CC4)CC2)cc(C)n1 (stereo not drawn) [CC_H-303, 3-[[2-Chloro-3-(trifluoromethyl)-benzoyl]amino]-N-[1-(2,6-dimethyl-pyridin-4-yl)-piperidin-4-yl]-N-methyl-2,3-dihydro-1H-indene-5-carboxylic acid amide] | 112
4 | Cc1cc(N2CCC(N(C)C(=O)c3ccc4c(c3)C(NC(=O)Nc3ccccc3Cl)CC4)CC2)cc(C)n1 (stereo not drawn) [CC_H-304, 3-[[(2-Chlorophenyl)-carbamoyl]amino]-N-[1-(2,6-dimethyl-pyridin-4-yl)-piperidin-4-yl]-N-methyl-2,3-dihydro-1H-indene-5-carboxylic acid amide] | 98
5 | Cc1cc(N2CCC(N(C)C(=O)c3ccc4c(c3)C(NC(=O)Nc3cccc(Cl)c3)CC4)CC2)cc(C)n1 (stereo not drawn) [CC_H-305, 3-[[(3-Chlorophenyl)-carbamoyl]amino]-N-[1-(2,6-dimethyl-pyridin-4-yl)-piperidin-4-yl]-N-methyl-2,3-dihydro-1H-indene-5-carboxylic acid amide] | 109
6 | Cc1cc(N2CCC(N(C)C(=O)c3ccc4c(c3)C(NC(=O)Nc3c(Cl)cccc3Cl)CC4)CC2)cc(C)n1 (stereo not drawn) [CC_H-306, 3-[[(2,6-Dichloro-phenyl)-carbamoyl]amino]-N-[1-(2,6-dimethyl-pyridin-4-yl)-piperidin-4-yl]-N-methyl-2,3-dihydro-1H-indene-5-carboxylic acid amide] | 107
7 | Cc1cc(N2CCC(N(C)C(=O)c3ccc4c(c3)C(NC(=O)Nc3cccc(Cl)c3Cl)CC4)CC2)cc(C)n1 (stereo not drawn) [CC_H-307, 3-[[(2,3-Dichloro-phenyl)-carbamoyl]amino]-N-[1-(2,6-dimethyl-pyridin-4-yl)-piperidin-4-yl]-N-methyl-2,3-dihydro-1H-indene-5-carboxylic acid amide] | 91
8 | Cc1cc(N2CCC(N(C)C(=O)c3ccc4c(c3)C(NC(=O)Nc3ccc(Cl)cc3C(F)(F)F)CC4)CC2)cc(C)n1 (stereo not drawn) [CC_H-312, 3-[[[4-Chloro-2-(trifluoromethyl)-phenyl]-carbamoyl]amino]-N-[1-(2,6-dimethyl-pyridin-4-yl)-piperidin-4-yl]-N-methyl-2,3-dihydro-1H-indene-5-carboxylic acid amide] | 92
9 | Cc1cc(N2CCC(N(C)C(=O)c3ccc4c(c3)C(NC(=O)Nc3ccc(F)c(Cl)c3)CC4)CC2)cc(C)n1 (stereo not drawn) [CC_H-314, 3-[[(3-Chloro-4-fluoro-phenyl)-carbamoyl]amino]-N-[1-(2,6-dimethyl-pyridin-4-yl)-piperidin-4-yl]-N-methyl-2,3-dihydro-1H-indene-5-carboxylic acid amide] | 81
10 | Cc1cc(N2CCC(N(C)C(=O)c3ccc4c(c3)C(NC(=O)N(C)c3ccccc3Cl)CC4)CC2)cc(C)n1 (stereo not drawn) [CC_H-316, 3-[[(2-Chlorophenyl)-methyl-carbamoyl]amino]-N-[1-(2,6-dimethyl-pyridin-4-yl)-piperidin-4-yl]-N-methyl-2,3-dihydro-1H-indene-5-carboxylic acid amide] | 106
11 | Cc1cc(N2CCC(N(C)C(=O)c3ccc4c(c3)C(NC(=O)CCC3CCCC3)CC4)CC2)cc(C)n1 (stereo not drawn) [CC_H-320, 3-(3-Cyclopentyl-propanoylamino)-N-[1-(2,6-dimethyl-pyridin-4-yl)-piperidin-4-yl]-N-methyl-2,3-dihydro-1H-indene-5-carboxylic acid amide] | 110
12 | Cc1cc(N2CCC(N(C)C(=O)c3ccc4c(c3)C(NS(=O)(=O)Cc3cccc(C(F)(F)F)c3)CC4)CC2)cc(C)n1 (stereo not drawn) [CC_H-322, N-[1-(2,6-Dimethyl-pyridin-4-yl)-piperidin-4-yl]-N-methyl-3-[[[3-(trifluoromethyl)phenyl]-methylsulfonyl]amino]-2,3-dihydro-1H-indene-5-carboxylic acid amide] | 84
13 | Cc1cc(N2CCC(N(C)C(=O)c3ccc4c(c3)C(NS(=O)(=O)Cc3ccccc3F)CC4)CC2)cc(C)n1 (stereo not drawn) [CC_H-323, N-[1-(2,6-Dimethyl-pyridin-4-yl)-piperidin-4-yl]-3-[[(2-fluorophenyl)-methylsulfonyl]amino]-N-methyl-2,3-dihydro-1H-indene-5-carboxylic acid amide] | 110
14 | Cc1cc(N2CCC(N(C)C(=O)c3ccc4c(c3)C(NS(=O)(=O)CCc3ccccc3Cl)CC4)CC2)cc(C)n1 (stereo not drawn) [CC_H-324, 3-[[2-(2-Chlorophenyl)-ethylsulfonyl]amino]-N-[1-(2,6-dimethyl-pyridin-4-yl)-piperidin-4-yl]-N-methyl-2,3-dihydro-1H-indene-5-carboxylic acid amide] | 108
15 | Cc1cc(N2CCC(N(C)C(=O)c3ccc4c(c3)C(N(C)C(=O)c3cc(F)ccc3Cl)CC4)CC2)cc(C)n1 (stereo not drawn) [CC_H-325, 3-[(2-Chloro-5-fluoro-benzoyl)-methyl-amino]-N-[1-(2,6-dimethyl-pyridin-4-yl)-piperidin-4-yl]-N-methyl-2,3-dihydro-1H-indene-5-carboxylic acid amide] | 112

The next lines start with the values.

Row | inhibition at 10 µM [%] | Structure (SMILES)
16 | 96 | Cc1cc(N2CCC(N(C)C(=O)c3ccc4c(c3)C(NC(=O)Nc3cc(Cl)ccc3Cl)CC4)CC2)cc(C)n1 (stereo not drawn) [CC_H-308, 3-[[(2,5-Dichloro-phenyl)-carbamoyl]amino]-N-[1-(2,6-dimethyl-pyridin-4-yl)-piperidin-4-yl]-N-methyl-2,3-dihydro-1H-indene-5-carboxylic acid amide]
17 | 101 | Cc1cc(N2CCC(N(C)C(=O)c3ccc4c(c3)C(NC(=O)Nc3ccc(Cl)cc3Cl)CC4)CC2)cc(C)n1 (stereo not drawn) [CC_H-310, 3-[[(2,4-Dichlorophenyl)-carbamoyl]amino]-N-[1-(2,6-dimethyl-pyridin-4-yl)-piperidin-4-yl]-N-methyl-2,3-dihydro-1H-indene-5-carboxylic acid amide]
18 | 80 | Cc1cc(N2CCC(N(C)C(=O)c3ccc4c(c3)C(NC(=O)Nc3cc(C(F)(F)F)ccc3Cl)CC4)CC2)cc(C)n1 (stereo not drawn) [CC_H-311, 3-[[[2-Chloro-5-(trifluoromethyl)-phenyl]-carbamoyl]amino]-N-[1-(2,6-dimethyl-pyridin-4-yl)-piperidin-4-yl]-N-methyl-2,3-dihydro-1H-indene-5-carboxylic acid amide]
19 | 72 | COc1ccc(Cl)cc1NC(=O)NC1CCc2ccc(C(=O)N(C)C3CCN(c4cc(C)nc(C)c4)CC3)cc21 (stereo not drawn) [CC_H-315, 3-[[(5-Chloro-2-methoxy-phenyl)-carbamoyl]amino]-N-[1-(2,6-dimethyl-pyridin-4-yl)-piperidin-4-yl]-N-methyl-2,3-dihydro-1H-indene-5-carboxylic acid amide]
20 | 110 | Cc1cc(N2CCC(N(C)C(=O)c3ccc4c(c3)C(NC(=O)N(C)c3ccc(Cl)cc3Cl)CC4)CC2)cc(C)n1 (stereo not drawn) [CC_H-317, 3-[[(2,4-Dichlorophenyl)-methyl-carbamoyl]amino]-N-[1-(2,6-dimethyl-pyridin-4-yl)-piperidin-4-yl]-N-methyl-2,3-dihydro-1H-indene-5-carboxylic acid amide]
21 | 111 | Cc1cc(N2CCC(N(C)C(=O)c3ccc4c(c3)C(NC(=O)CC(C)C)CC4)CC2)cc(C)n1 (stereo not drawn) [CC_H-318, N-[1-(2,6-Dimethyl-pyridin-4-yl)-piperidin-4-yl]-N-methyl-3-(3-methyl-butanoylamino)-2,3-dihydro-1H-indene-5-carboxylic acid amide]
22 | 106 | CCCC(=O)NC1CCc2ccc(C(=O)N(C)C3CCN(c4cc(C)nc(C)c4)CC3)cc21 (stereo not drawn) [CC_H-319, 3-(Butanoylamino)-N-[1-(2,6-dimethyl-pyridin-4-yl)-piperidin-4-yl]-N-methyl-2,3-dihydro-1H-indene-5-carboxylic acid amide]
23 | 65 | CCS(=O)(=O)NC1CCc2ccc(C(=O)N(C)C3CCN(c4cc(C)nc(C)c4)CC3)cc21 (stereo not drawn) [CC_H-321, N-[1-(2,6-Dimethyl-pyridin-4-yl)-piperidin-4-yl]-3-[(ethylsulfonyl)amino]-N-methyl-2,3-dihydro-1H-indene-5-carboxylic acid amide]
24 | 112 | Cc1cc(N2CCC(N(C)C(=O)c3ccc4c(c3)C(N(C)C(=O)c3cc(C(F)(F)F)ccc3Cl)CC4)CC2)cc(C)n1 (stereo not drawn) [CC_H-326, 3-[[2-Chloro-5-(trifluoromethyl)-benzoyl]-methyl-amino]-N-[1-(2,6-dimethyl-pyridin-4-yl)-piperidin-4-yl]-N-methyl-2,3-dihydro-1H-indene-5-carboxylic acid amide]
